Common to all, as to assay: DTP human tumour cell line panel, 48 h
Assay [1] relates to XF 498 CNS.
Assay [2] deals with UACC-62 melanoma.
Assay [3] has as its system HOP-18 NSCLC.
Assay [4] concerns HS 578T breast.
The subject of assay [5] is A498 renal.
Assay [6] relates to SK-MEL-2 melanoma.
Assay [7] relates to RXF 393 renal.
Assay [8] deals with HCT-116 colon.
Assay [9] has as its system DLD-1 colon.
The subject of assay [10] is SF-268 CNS.
Assay [11] relates to DMS 114 small cell lung.
For assay [12], the system named is HOP-92 NSCLC.

SMILES strings stand for the structures.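 Compound exposure: 48 hours, 5 concentrations, 96-well plates. TGI denotes the concentration required for complete inhibition of growth.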

The term TGI denotes the concentration giving total growth inhibition. On to `O=C1CCC(c2ccccc2)=NN1c1nc2ccccc2s1`, for which the TGI is 86.7 µM in assay [1]; greater than 100 µM in assay [2]; greater than 100 µM in assay [3]; greater than 100 µM in assay [4]; greater than 100 µM in [5]; 42.5 µM in assay [6]. The TGI in assay [7] is 34.1 µM; in assay [8] it was greater than 88.2 µM; in [9] it was greater than 100 µM; in assay [10] it was greater than 83 µM; in assay [11], greater than 100 µM; in assay [12] it was greater than 73.8 µM.

Consider `Cc1cc(Cl)ccc1N=C1NC(=O)C(CC(=O)Nc2cccc(Cl)c2)S1` (stereo not given), for which the TGI is greater than 100 µM in assay [1]; greater than 100 µM in [2]; greater than 100 µM in [3]; 92.4 µM in assay [5]; greater than 100 µM in [6]; 72.6 µM in [7]. Moreover, the TGI is greater than 100 µM in [8]; greater than 100 µM in [9]; greater than 100 µM in [10]; greater than 100 µM in assay [11]; 69.8 µM in assay [12].

With `COc1cc2c(oc(=O)c3c4occc4cc(OC)c23)c2cccc(O)c12`, the total growth inhibition concentration (TGI) in assay [1], in assay [2], in assay [3], in assay [5], in assay [7] and in assay [8] was greater than 100 µM throughout. Besides, the TGI in [9], in assay [10], in assay [11] and in [12] was greater than 100 µM throughout.

As to `O=C(N/C(=C\c1ccc([N+](=O)[O-])cc1)c1nc2ccccc2s1)c1ccccc1`, the TGI in assay [1] is greater than 100 µM; in [2], 48.3 µM; in assay [3] it was 61.9 µM; in [5] it was greater than 100 µM; in assay [6], 80.5 µM; in [7], 78.4 µM. Moreover, the TGI was greater than 100 µM in assay [8]; 58.7 µM in assay [9]; 56.2 µM in assay [10]; 68.4 µM in assay [11]; 68.8 µM in [12].

Turning to `CCOc1ccc(C2=NN(CC)C(=O)C(C3C(=O)N(c4ccccc4)N=C3C)C2)cc1` (stereo not given), the TGI in assay [1], in assay [2], in assay [3], in assay [5], in assay [6] and in assay [7] was greater than 100 µM each time. Moreover, the total growth inhibition concentration (TGI) in [8], in assay [9], in [10], in assay [11] and in assay [12] was greater than 100 µM in each case.

As for `CC1NOC(=O)C1N=Nc1cccc(Cl)c1` (stereo not given), the TGI in [1] was 72 µM; in assay [2] it was greater than 100 µM; in assay [3], greater than 100 µM; in [5], 52.5 µM; in assay [6] it was 47.4 µM; in assay [7], 64.1 µM. Also, the TGI in assay [8] is greater than 100 µM; in [9], greater than 100 µM; in [10], 89.9 µM; in [11] it was 61.7 µM; in assay [12], greater than 100 µM.

With `COC(=O)C1=NC(=S)NC(c2ccccc2)C1c1nc2ccccc2o1` (stereo not given), the TGI in assay [1], in assay [2], in [3], in assay [5], in assay [6] and in assay [7] was greater than 50 µM each time. Moreover, the TGI in assay [8], in assay [9], in assay [10], in assay [11] and in assay [12] was greater than 50 µM throughout.

On to `C=CCNC(=S)NNC(=O)c1c(C)nc2sccn12`, for which the TGI in assay [1], in [2], in assay [3], in assay [6], in assay [7] and in [8] was greater than 100 µM in each case. The TGI in [9], in [10], in assay [11] and in assay [12] was greater than 100 µM throughout.

For the molecule `COC(=O)CC1(O)C(=O)OCc2c1cc1n(c2=O)Cc2c-1nc1ccccc1c2OC` (stereo not given), the TGI in assay [1] is 40 µM; in [2], 2.29 µM; in [3], greater than 100 µM; in [5], 11.5 µM; in assay [6], 74.6 µM; in assay [7] it was 8.42 µM. The TGI in assay [8] was greater than 100 µM; in assay [9], greater than 100 µM; in assay [10] it was greater than 34 µM; in assay [11], greater than 33.1 µM; in [12] it was 92.2 µM.

On to `COC(=O)C(=O)C(C(=O)C(=O)Nc1ccc([N+](=O)[O-])cc1)c1nc2ccccc2[nH]c1=O` (stereo not given), for which the TGI in assay [1], in assay [2], in [3], in [5], in assay [6] and in assay [7] was greater than 100 µM in each case. The TGI in assay [8], in assay [9], in assay [10], in [11] and in [12] was greater than 100 µM throughout.

`CCCC1C[C@H]2CCCCN2[C@H]2CCCN12` (stereo not given in full): the TGI was greater than 100 µM in [1]; greater than 100 µM in [2]; greater than 100 µM in [3]; greater than 100 µM in [5]; greater than 100 µM in [6]; greater than 90.1 µM in assay [7]. The TGI was greater than 66.2 µM in assay [8]; greater than 83.6 µM in assay [9]; greater than 100 µM in assay [10]; greater than 86.9 µM in assay [11]; greater than 100 µM in [12].

On to `COc1ccc(/C=C/C(=N\NC(=O)c2ccccc2)c2sc(Nc3ccc([N+](=O)[O-])cc3)nc2C)cc1OC`, for which the TGI in assay [1] is 29.5 µM; in assay [2] it was 6.78 µM; in assay [3], 85 µM; in [6], 33 µM; in assay [7], 52.5 µM; in [8], greater than 100 µM. The total growth inhibition concentration (TGI) was determined as 28.8 µM in assay [9], 33.5 µM in [10], 62.7 µM in assay [11] and 6.41 µM in assay [12].

The record behind these values is PubChem BioAssay (NCI).
